Reference: patent publication US5616573A, “Glucocorticoids” (Schering Aktiengesellschaft, priority 1993, dated 1997)
Where a SMILES comes first, the peptide text is derived from it. The star is where a group is joined. X5 = C[C@]12CCC(=O)C=C1CC[C@@H]1[C@@H]2[C@@H](O)C[C@@]2(C)[C@H]1CC[C@]2(O)C(=O)CO*; Fmoc = O=C(OCC1c2ccccc2-c2ccccc21)*

Molecular target: T1, rat glucocorticoid receptor (Rattus norvegicus, UniProt P06536)
T1 sequence (P06536 1-795): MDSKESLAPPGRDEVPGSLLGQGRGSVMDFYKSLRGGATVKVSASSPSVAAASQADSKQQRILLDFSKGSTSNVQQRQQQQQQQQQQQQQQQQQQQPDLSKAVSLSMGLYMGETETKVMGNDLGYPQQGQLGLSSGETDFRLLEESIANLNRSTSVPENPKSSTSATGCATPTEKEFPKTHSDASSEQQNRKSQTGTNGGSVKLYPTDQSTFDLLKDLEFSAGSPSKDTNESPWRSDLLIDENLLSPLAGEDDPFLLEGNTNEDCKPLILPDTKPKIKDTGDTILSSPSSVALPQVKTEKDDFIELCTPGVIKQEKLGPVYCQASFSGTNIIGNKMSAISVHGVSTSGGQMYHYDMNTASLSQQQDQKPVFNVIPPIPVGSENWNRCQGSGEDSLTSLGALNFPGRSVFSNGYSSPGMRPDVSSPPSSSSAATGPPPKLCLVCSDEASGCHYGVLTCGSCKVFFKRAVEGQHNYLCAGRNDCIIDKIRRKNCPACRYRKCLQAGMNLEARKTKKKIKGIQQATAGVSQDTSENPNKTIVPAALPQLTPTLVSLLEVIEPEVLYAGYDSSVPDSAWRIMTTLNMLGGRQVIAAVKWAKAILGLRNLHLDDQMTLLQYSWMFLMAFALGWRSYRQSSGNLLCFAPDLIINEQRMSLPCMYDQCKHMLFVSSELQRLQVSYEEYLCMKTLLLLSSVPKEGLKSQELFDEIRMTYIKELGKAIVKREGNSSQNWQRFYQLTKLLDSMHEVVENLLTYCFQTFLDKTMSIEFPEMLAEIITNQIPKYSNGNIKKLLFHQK
Experiment: Binding to the Glucocorticoid Receptor: competitive displacement of tritiated dexamethasone in rat thymus cytosol
Conditions: quotient of concentrations of test substance and dexamethasone displacing 50% of labeled dexamethasone; 2 hours at 4° C.; lower KF = better binding
Experimental: The binding of the substances according to the invention to the rat glucocorticoid receptor is determined by competitive displacement of tritiated dexamethasone from the receptor binding. Different concentrations of the glucocorticoid esters are incubated for 2 hours at 4° C. in the presence of a constant concentration of tritium-labeled dexamethasone with rat thymus cytosol. After the incubation time, the non-protein-bound steroids are adsorbed on activated carbon and the activated carbon is centrifuged off. The radioactivity in the supernatant is used as a measurement for the amount of receptor-bound dexamethasone.
From the measurements, the concentrations of the respective corticoid derivative are calculated, which are necessary to displace 50% of the labeled dexamethasone from the receptor binding. Competition factor (KF) is the quotient of these calculated concentrations for the test substance and that of dexamethasone.

SMILES: CC(C)[C@H](NC(=O)[C@@H]1CCCN1C(=O)[C@H](C)NC(=O)[C@H](C)NC(=O)OCC1c2ccccc2-c2ccccc21)C(=O)OCC(=O)[C@@]1(O)CC[C@H]2[C@@H]3CCC4=CC(=O)CC[C@]4(C)[C@H]3[C@@H](O)C[C@@]21C [Example 29, N-(N-(N-(N-(9H-Fluoren-9-yl-methoxycarbonyl)-L-alanyl)-L-alanyl) -L-prolyl)-L-valine [11β,17,21-trihydroxy-3,20-dioxo-pregn-4-en-21-yl] ester] (Fmoc-AAPV-X5)
- Competition Factor [KF]: k.k. [n.c.]
